How the values were obtained:
Assay type in all cases: cell-based
Phytophthora capsici = assay: In vitro fungitoxicity assay against Phytophthora capsici in copper-minus AS and copper-plus AS medium
Ustilago maydis = assay: In vitro fungitoxicity assay against Ustilago maydis in copper-minus and copper-plus medium; conditions: 1 μg/mL, calculated with Colby formula
[1] = system: Leptosphaeria nodorum (LEPTNO); assay: In vitro fungitoxicity assay against Leptosphaeria nodorum (LEPTNO) in copper-minus and copper-plus medium; conditions: CuCl2 10 μM, no test compound, across experiments

## C/C(=N\NC(=O)c1ccc(Cl)cc1)c1cc(F)cc(F)c1O [Compound 96]
Phytophthora capsici; 0.050 μg/mL, calculated with Colby formula
  % Inhn Plus copper Predicted: 7.2%
Ustilago maydis
  % Inhn. Plus copper Predicted: 53.6%

## [Cl][Cu][Cl] [CuCl2, copper chloride]
[1]
  LEPTNO % Inhn. attributed to copper chloride alone: 7.1 ± 6.0%
Phytophthora capsici; CuCl2 50 uM, no test compound, across experiments
  % Inhn attributed to copper chloride alone: 4.5 ± 7.9%

— patent publication US8476194B2
